Experimental data as given in publication PMC11864979, “First-in-class ultralong-target-residence-time p38α inhibitors as a mitosis-targeted therapy for colorectal cancer” (Nature Cancer, 2025).
Values joined by “and” are separate entries in the source; they are usually repeats but may differ in a detail not shown here. Identical values can stand only once. Like-named read-outs stand apart in the source and are kept apart here.

What was measured:
p38α = p38α (Homo sapiens, UniProt Q16539); assay: p38α inhibition on isolated enzyme (ELISA, ATF2 substrate); format: biochemical; conditions: Fig. 2d; replicates
Method: For evaluating p38α inhibition on isolated enzyme, an ELISA assay was performed[57]. […] Compounds were dissolved in DMSO (10 mM) and diluted (0.01–10 µM) in a kinase buffer containing 12 ng per 50 µl p38α protein (provided by J. Schultz, University of Tübingen), 50 mM Tris pH 7.5, 10 mM MgCl2, 10 mM β-glycerophosphate, 100 µg ml^−1 BSA, 1 mM dithiothreitol, 0.1 mM Na3VO4 and 100 µM ATP. Then, 50 µl of each sample was pipetted into the corresponding wells and incubated for 1 h at 37 °C. […] Finally, 50 µl of TMB substrate (BD Bioscience) was added to the wells. After 5 min, the reaction was stopped by adding 25 µl of 1 N HCl and the samples were measured photometrically at 450 nm with an ELISA reader (Molecular Devices, FilterMax F5) using SOFTmax PRO software (version 6.5.1).

KAP organoids = assay: cell viability in KAP organoids (CellTiter-Glo); format: cell-based, mouse; conditions: for induction of cell death in KAP organoids (in words): viability assay
Method: For in vitro treatment studies, organoids were mechanically dissociated and digested using TrypLE supplemented with 100 µg ml^−1 DNaseI and 10.5 µM Y-27632 dihydrochloride (Invitrogen) at 37 °C. A total of 1,000–2,000 single cells were plated per well in white 96-well plates (Greiner) in culture medium containing 10% GFR Matrigel or Cultrex BME. The treatment with doxycycline (5 µg ml^−1), pharmacological inhibitors or corresponding volumes of DMSO was started 24 h after plating. Doxycycline was obtained from Sigma-Aldrich. […] Cell viability was measured by means of CellTiter-Glo 3D or CellTiter-Glo 2.0 reagent (Promega) according to the manufacturers’ instructions and the Infinite M Plex reader (Tecan, i-control version 3.9.1 software). Results were normalized to vehicle (DMSO) or to shNC. For cell-doubling assays, the cell number was quantified at the corresponding time points using Guava EasyCyte flow cytometer (Luminex, CytoSoft v5.2 software).

subcutaneous KAP CRCs = assay: treatment of subcutaneous KAP tumors in wild-type mice; format: in vivo, mouse; conditions: 6 d of treatment; single tumors; Fig. 5i
Method: Subcutaneous injection, splenic seeding or cecum injection of organoids was performed in 8–10-week-old C57BL/6 N/Crl, Rag2^−/− (B6.Cg-Rag2^tm1.1Cgn/J), or CB17 Scid beige (CB17.Cg-Prkdc^scidLyst^bg-J/Crl) mice, obtained from Charles River. The organoids were dissociated into single cells, washed with PBS and injected in a 1:1 mixture of PBS and Matrigel. For murine organoids, 1 × 10^5 cells were injected into the left and right flanks or the spleen capsule and 2 × 10^6 cells were injected into the cecum wall. For human organoids, 4 × 10^5 cells were injected into the flanks of CB17 Scid beige mice. For splenic seeding and cecum injection, mice were anaesthetized using ketamine (100 mg kg^−1, intraperitoneally) and xylazin (10 mg/kg, intraperitoneally) in NaCl and a small laparotomy below the thorax was performed.
No mice were excluded during treatment studies.

[1] = cell viability after 2015, Navitoclax or 2015 + Navitoclax (Fig. 5f); format: cell-based; design: concentration or dose not given beside the values; conditions: replicates
[2] = Mus musculus, 24 h, read-out: Cell viability (%), Fig. 1d, replicates

Sequence of p38α (Q16539 whole entry): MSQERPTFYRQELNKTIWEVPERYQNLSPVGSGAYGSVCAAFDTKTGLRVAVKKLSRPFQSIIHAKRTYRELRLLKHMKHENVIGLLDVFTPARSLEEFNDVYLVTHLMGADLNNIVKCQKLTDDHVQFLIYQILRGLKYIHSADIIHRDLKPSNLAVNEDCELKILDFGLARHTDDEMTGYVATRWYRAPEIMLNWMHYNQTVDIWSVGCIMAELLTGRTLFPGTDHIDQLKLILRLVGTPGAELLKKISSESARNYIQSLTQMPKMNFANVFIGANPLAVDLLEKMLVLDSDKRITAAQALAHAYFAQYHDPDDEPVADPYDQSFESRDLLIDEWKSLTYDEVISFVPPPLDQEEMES

| SMILES | viability at 10 µM (KAP organoids; [2]) | induction of cell death in KAP organoids (in words) (KAP organoids) | other results |
| --- | --- | --- | --- |
| CC(C)(C)Cn1c(N)nc2ccc(-c3[nH]c(C(C)(C)C)nc3-c3ccc(F)cc3)nc21 [LY222820] |  |  | IC50 (p38α): 7.81 nM and 4.31 nM and 10.9 nM |
| CNC(=O)c1ccc(C)c(-n2c(C)cc(OCc3ccc(F)cc3F)c(Br)c2=O)c1 [PH797804] | 84.1% |  | viability at 1 µM (KAP organoids; Mus musculus, 24 h, read-out: Cell viability (%), Fig. 1d, 1 µM, replicates): 92.1%; viability at 1 µM (KAP organoids; Mus musculus, read-out: Cell viability (% of DMSO), drug screen in KAP organoids, 1 µM concentration, n = 3, mean): 86.2% |
| Cc1ccc(-n2nc(C(C)(C)C)cc2NC(=O)Nc2ccc(OCCN3CCOCC3)c3ccccc23)cc1 [BIRB-796, reference compound] |  | failed to inhibit p38α downstream signaling and induce cell death |  |
| CC(C)(C)Cn1c(N)nc2ccc(-c3[nH]c(C(C)(C)C)nc3-c3ccc(F)cc3)nc21 [LY2228820, ralimetinib, reference compound] | 77.8% | only a very weak induction of cell death | viability at 5 µM (KAP organoids; Mus musculus, 24 h, read-out: Cell viability (%), Fig. 1d, 5 µM, replicates): 93.3% |
| CNC(=O)c1ccc(C)c(-n2c(C)cc(OCc3ccc(F)cc3F)c(Br)c2=O)c1 [PH-797804, reference compound] |  | only a very weak induction of cell death |  |
| CC1(C)CCC(c2ccc(Cl)cc2)=C(CN2CCN(c3ccc(C(=O)NS(=O)(=O)c4ccc(N[C@H](CCN5CCOCC5)CSc5ccccc5)c(S(=O)(=O)C(F)(F)F)c4)cc3)CC2)C1 [navitoclax, reference compound] |  | no therapeutic response | Tumor volume (subcutaneous KAP CRCs): 87.5 mm³ and 126.0 mm³ and 144.0 mm³ and 112.5 mm³ and 100.0 mm³; Cell viability [1]: 100.49% and 78.37% and 85.69% |
